From PMC8063935, “Amphipathic Peptide Antibiotics with Potent Activity against Multidrug-Resistant Pathogens” (Pharmaceutics, 2021)
Values after ≈ are worked out from the molar mass of the structure shown. Where a SMILES comes first, the peptide text is derived from it.

Experiments:
[1] = system: MRSA T144; assay: Thermal, pH, salts, serum and protease stability (residual MIC); format: cell-based, Staphylococcus aureus
Protocol: (§1) In order to evaluate the influence of ions and serum on the activity of AMPs, 10 mM Na^+, K^+, Mg^2+, 10% Dulbecco’s Modified Eagle Medium (DMEM) and fetal bovine serum (FBS) were added into Mueller-Hinton broth (MHB) culture medium for subsequent MIC tests.
(§2) Drugs were incubated at different temperatures (range from 40 to 121 °C) and pH (range from 2 to 12) for 1 h, then adjust back to original pH, following MIC test to evaluate their residual activity. To evaluate the protease stability, pepsin, trypsin, and papain were mixed with WW307 to achieve a final concentration of 1 mM, and then incubated at 37 °C for 1 h. After incubation, the remaining protease was precipitated using acetonitrile and removed by centrifugation at 3000× g, following for MIC test.

[2] = system: E. coli B2; assay: as above; format: cell-based, Escherichia coli
Protocol: as §1, §2

[3] = system: MRSA T144; assay: as above; format: cell-based, Staphylococcus aureus; details: protease precipitated with acetonitrile, then MIC test
[4] = system: E. coli B2; assay: as above; format: cell-based, Escherichia coli; details: protease precipitated with acetonitrile, then MIC test
[5] = system: S. aureus G16 (RIF^R); assay: microbe, parasite or virus in culture; format: cell-based, Staphylococcus aureus; details: S. aureus G16 (RIF^R)
Protocol: (§3) The MICs of all drugs were determined by micro-broth dilution method according to CLSI 2018 guidelines. The bacterial suspension used in the experiment was appropriate 1.5 × 10^6 colony-forming units (CFUs) per mL and mixed with the drug solution in a sterilized 96-well microtiter plate (Corning, New York, USA), then incubated at 37 °C for 16–18 h. MIC value was defined as the minimum drug concentration without visible bacteria. Meanwhile, the density of the bacteria at 600 nm was measured, and the corresponding IC50 was calculated using log (inhibitor) vs. response variable slope (four parameters) in Graphpad Prism version 8.3.0 software (San Diego, CA, USA). To assess the role of ROS production in the antibacterial activity of WW307, increasing concentrations of N-acetylcysteine (NAC) from 0 to 5 mM were added in culture medium, followed by MICs test.

[6] = system: MRSA T144; assay: microbe, parasite or virus in culture; format: cell-based, Staphylococcus aureus
Protocol: as §3

[7] = system: A. baumannii C222 (tet(X6)); assay: microbe, parasite or virus in culture; format: cell-based, Acinetobacter baumannii; details: A. baumannii C222 (tet(X6))
Protocol: as §3

[8] = system: E. coli G92 (mcr-1); assay: microbe, parasite or virus in culture; format: cell-based, Escherichia coli; details: E. coli G92 (mcr-1)
Protocol: as §3

[9] = system: E. coli 1F28 (tet(X4)); assay: microbe, parasite or virus in culture; format: cell-based, Escherichia coli
Protocol: as §3

[10] = system: E. coli B2 (mcr-1 + blaNDM-5); assay: microbe, parasite or virus in culture; format: cell-based, Escherichia coli; details: E. coli B2 (mcr-1 + blaNDM-5)
Protocol: as §3

[11] = system: P. cibarius HNCF44W (blaNDM-1 + tet(X6)); assay: MIC / IC50, micro-broth dilution; format: cell-based
Protocol: as §3

[12] = system: E. coli G6 (blaNDM-5); assay: MIC / IC50, micro-broth dilution; format: cell-based, Escherichia coli
Protocol: as §3

[13] = system: E. coli C3 (blaNDM-1); assay: MIC / IC50, micro-broth dilution; format: cell-based, Escherichia coli
Protocol: as §3

[14] = system: E. coli CP131 (mcr-3); assay: MIC / IC50, micro-broth dilution; format: cell-based, Escherichia coli; details: E. coli CP131 (mcr-3)
Protocol: as §3

[15] = system: Sheep RBCs; assay: Hemolysis analysis; format: cell-based; details: 8% sheep red blood cell suspension, 37 °C, 1 h, released hemoglobin at 576 nm; PBS negative, ddH2O positive control
Protocol: The hemolytic activity on all peptides was evaluated based on previous report. Briefly, fresh Sheep RBCs were washed twice with phosphate buffer (PBS), and then 8% red blood cell suspension was prepared. The increasing concentrations of AMPs and melittin were mixed with 8% red blood cell suspension, respectively, and incubated at 37 °C for 1 h. The sterilized PBS and double-distilled water (ddH2O) were used as blank and positive control, respectively. Afterwards, the supernatant was centrifuged to measure the absorption of released hemoglobin at 576 nm by an Infinite M200 Microplate reader (Tecan, Männedorf, Switzerland). The corresponding hemolysis rate was calculated.

[16] = 10% fetal bovine serum (FBS) added into MHB
[17] = WW307 incubated at 40 °C for 1 h before MIC test
[18] = WW307 incubated at 60 °C for 1 h before MIC test
[19] = WW307 incubated at 80 °C for 1 h before MIC test
[20] = WW307 incubated at 100 °C for 1 h before MIC test
[21] = WW307 incubated at 121 °C for 1 h before MIC test
[22] = WW307 incubated at pH 2 for 1 h, adjusted back to original pH, then MIC test
[23] = WW307 incubated at pH 4 for 1 h, adjusted back to original pH, then MIC test
[24] = WW307 incubated at pH 6 for 1 h, adjusted back to original pH, then MIC test
[25] = WW307 incubated at pH 8 for 1 h, adjusted back to original pH, then MIC test
[26] = WW307 incubated at pH 10 for 1 h, adjusted back to original pH, then MIC test
[27] = WW307 incubated at pH 12 for 1 h, adjusted back to original pH, then MIC test
[28] = WW307 incubated with trypsin (1 mg/mL) at 37 °C for 1 h
[29] = OD600 of micro-broth dilution plates, four-parameter fit
[30] = micro-broth dilution, CLSI 2018, ~1.5 × 10^6 CFUs per mL, 37 °C, 16–18 h

Q: Which results are given for `CC(C)[C@H](NC(=O)[C@H](Cc1c[nH]c2ccccc12)NC(=O)[C@H](Cc1c[nH]c2ccccc12)NC(=O)[C@H](Cc1c[nH]c2ccccc12)NC(=O)[C@H](Cc1c[nH]c2ccccc12)NC(=O)[C@H](CCCNC(=N)N)NC(=O)[C@H](CCCNC(=N)N)NC(=O)[C@@H](N)CCCNC(=N)N)C(N)=O` [WW307] (H-RRRWWWWV-NH2)?
A: MIC with K^+ ([1]; 10 mM K^+ added into MHB): 4 µg/mL; MIC with Mg^2+ ([1]; 10 mM Mg^2+ added into MHB): 16 µg/mL; MIC with Na^+ ([1]; 10 mM Na^+ added into MHB): 4 µg/mL; MIC with DMEM (10%) ([1]; 10% DMEM added into MHB): 8 µg/mL; MIC with Serum (10%) [1, 16]: 8 µg/mL; MIC after 40 °C [1, 17]: 4 µg/mL; MIC after 60 °C [1, 18]: 4 µg/mL; MIC after 80 °C [1, 19]: 4 µg/mL; MIC after 100 °C [1, 20]: 4 µg/mL; MIC after 121 °C [1, 21]: 4 µg/mL; MIC after pH 2 [1, 22]: 4 μg/mL; MIC after pH 4 [1, 23]: 4 μg/mL; MIC after pH 6 [1, 24]: 4 μg/mL; MIC after pH 8 [1, 25]: 4 μg/mL; MIC after pH 10 [1, 26]: 4 μg/mL; MIC after pH 12 [1, 27]: 4 μg/mL; MIC after papain ([1]; WW307 incubated with papain (1 mg/mL) at 37 °C for 1 h, protease precipitated with acetonitrile, then MIC test): >128 µg/mL; MIC, Control ([1]; untreated WW307): 4 µg/mL; MIC with K^+ ([2]; 10 mM K^+ added into MHB): 4 µg/mL; MIC with Mg^2+ ([2]; 10 mM Mg^2+ added into MHB): 16 µg/mL; MIC with Na^+ ([2]; 10 mM Na^+ added into MHB): 4 µg/mL; MIC with DMEM (10%) ([2]; 10% DMEM added into MHB): 8 µg/mL; MIC with Serum (10%) [2, 16]: 8 µg/mL; MIC after 40 °C [2, 17]: 4 µg/mL; MIC after 60 °C [2, 18]: 4 µg/mL; MIC after 80 °C [2, 19]: 4 µg/mL; MIC after 100 °C [2, 20]: 4 µg/mL; MIC after 121 °C [2, 21]: 4 µg/mL; MIC after pH 2 [2, 22]: 4 μg/mL; MIC after pH 4 [2, 23]: 4 μg/mL; MIC after pH 6 [2, 24]: 4 μg/mL; MIC after pH 8 [2, 25]: 4 μg/mL; MIC after pH 10 [2, 26]: 4 μg/mL; MIC after pH 12 [2, 27]: 8 μg/mL; MIC after pepsin ([2]; WW307 incubated with pepsin (1 mg/mL) at 37 °C for 1 h, protease precipitated with acetonitrile, then MIC test): 4 µg/mL; MIC, Control ([2]; untreated WW307): 4 µg/mL; MIC after pepsin ([3]; WW307 incubated with pepsin (1 mg/mL) at 37 °C for 1 h): 4 µg/mL; MIC after trypsin [3, 28]: >128 µg/mL; MIC after papain ([4]; WW307 incubated with papain (1 mg/mL) at 37 °C for 1 h): >128 µg/mL; MIC after trypsin [4, 28]: >128 µg/mL; IC50 [5, 29]: 0.52 µg/mL (≈ 0.391 µM); MIC [5, 30]: 1 µg/mL (≈ 0.752 µM); IC50 [6, 29]: 1.03 µg/mL (≈ 0.775 µM); MIC [6, 30]: 4 µg/mL (≈ 3.01 µM); IC50 [7, 29]: 2.15 µg/mL (≈ 1.62 µM); MIC [7, 30]: 4 µg/mL (≈ 3.01 µM); IC50 [8, 29]: 2.18 µg/mL (≈ 1.64 µM); MIC [8, 30]: 4 µg/mL (≈ 3.01 µM); IC50 [9, 29]: 2.13 µg/mL (≈ 1.6 µM); MIC [9, 30]: 4 µg/mL (≈ 3.01 µM); IC50 [10, 29]: 4.18 µg/mL; MIC [10, 30]: 4 µg/mL; IC50 [11, 29]: 2.21 µg/mL (≈ 1.66 µM); MIC [11, 30]: 2 µg/mL (≈ 1.5 µM); IC50 [12, 29]: 2.25 µg/mL (≈ 1.69 µM); MIC [12, 30]: 8 µg/mL (≈ 6.02 µM); IC50 [13, 29]: 1.82 µg/mL (≈ 1.37 µM); MIC [13, 30]: 4 µg/mL (≈ 3.01 µM); IC50 [14, 29]: 2.07 µg/mL (≈ 1.56 µM); MIC [14, 30]: 4 µg/mL (≈ 3.01 µM); HL50 (peptide concentration that causes 50% hemolysis) [15]: > 128 µg/mL
